From US8192962B2, “Processes for detecting toxic substances” (Daikin Industries, Ltd., priority 2001, dated 2012)

Test system: Metabolism protein genes
Assay: DNA chip mRNA expression in yeast, metabolism protein genes (Table 7)
Type: cell-based, Saccharomyces cerevisiae S288C
Procedure, shortened: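 S. cerevisiae S288C grown at 25° C. in YPD to log phase, then exposed 2 h to a toxicant at a growth-inhibiting, non-lethal concentration; untreated cells as control. Poly(A) mRNA reverse-transcribed with Cy3-dUTP or Cy5-dUTP, hybridized >12 h at 65° C. to whole-genome yeast DNA chip; value = fluorescence ratio treated/untreated.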

C[S+](C)[O-] [(15), dimethylsulfoxide]
The level of expressed mRNA in the presence of chemical substance/The level of expressed mRNA in the absence of chemical substance (yeast gene YAL012W): 3.1
The level of expressed mRNA in the presence of chemical substance/The level of expressed mRNA in the absence of chemical substance (yeast gene YAL038W): 3.1
The level of expressed mRNA in the presence of chemical substance/The level of expressed mRNA in the absence of chemical substance (yeast gene YAL044C): 0.7
The level of expressed mRNA in the presence of chemical substance/The level of expressed mRNA in the absence of chemical substance (yeast gene YAL054C): 0.9
The level of expressed mRNA in the presence of chemical substance/The level of expressed mRNA in the absence of chemical substance (yeast gene YAR071W): 1.1
The level of expressed mRNA in the presence of chemical substance/The level of expressed mRNA in the absence of chemical substance (yeast gene YBL001C): 1.0
level of expressed mRNA in the presence/in the absence of chemical substance (yeast gene YBR003W): 0.7
level of expressed mRNA in the presence/in the absence of chemical substance (yeast gene YBR011C): 2.1
The level of expressed mRNA in the presence of chemical substance/The level of expressed mRNA in the absence of chemical substance (yeast gene YBR014C): 1.2
level of expressed mRNA in the presence/in the absence of chemical substance (yeast gene YBR020W): 1.3
The level of expressed mRNA in the presence of chemical substance/The level of expressed mRNA in the absence of chemical substance (yeast gene YBR023C): 2.8
The level of expressed mRNA in the presence of chemical substance/The level of expressed mRNA in the absence of chemical substance (yeast gene YBR029C): 3.5
The level of expressed mRNA in the presence of chemical substance/The level of expressed mRNA in the absence of chemical substance (yeast gene YBR035C): 0.7
The level of expressed mRNA in the presence of chemical substance/The level of expressed mRNA in the absence of chemical substance (yeast gene YBR068C): 1.6
The level of expressed mRNA in the presence of chemical substance/The level of expressed mRNA in the absence of chemical substance (yeast gene YBR111C): 0.7
The level of expressed mRNA in the presence of chemical substance/The level of expressed mRNA in the absence of chemical substance (yeast gene YBR183W): 1.1
The level of expressed mRNA in the presence of chemical substance/The level of expressed mRNA in the absence of chemical substance (yeast gene YBR256C): 1.6
The level of expressed mRNA in the presence of chemical substance/The level of expressed mRNA in the absence of chemical substance (yeast gene YCL009C): 6.5
level of expressed mRNA in the presence/in the absence of chemical substance (yeast gene YCR010C): 1.2
level of expressed mRNA in the presence/in the absence of chemical substance (yeast gene YCR034W): 0.9
The level of expressed mRNA in the presence of chemical substance/The level of expressed mRNA in the absence of chemical substance (yeast gene YCR037C): 1.0
The level of expressed mRNA in the presence of chemical substance/The level of expressed mRNA in the absence of chemical substance (yeast gene YCR048W): 3.1
The level of expressed mRNA in the presence of chemical substance/The level of expressed mRNA in the absence of chemical substance (yeast gene YCR098C): 11.0
The level of expressed mRNA in the presence of chemical substance/The level of expressed mRNA in the absence of chemical substance (yeast gene YDL021W): 0.7
The level of expressed mRNA in the presence of chemical substance/The level of expressed mRNA in the absence of chemical substance (yeast gene YDL022W): 0.9
level of expressed mRNA in the presence/in the absence of chemical substance (yeast gene YDR050C): 1.9
level of expressed mRNA in the presence/in the absence of chemical substance (yeast gene YDR073W): 0.8
level of expressed mRNA in the presence/in the absence of chemical substance (yeast gene YDR123C): 1.2
level of expressed mRNA in the presence/in the absence of chemical substance (yeast gene YDR178W): 0.7
level of expressed mRNA in the presence/in the absence of chemical substance (yeast gene YDR277C): 0.4
level of expressed mRNA in the presence/in the absence of chemical substance (yeast gene YDR284C): 0.9
level of expressed mRNA in the presence/in the absence of chemical substance (yeast gene YDR345C): 0.8
The level of expressed mRNA in the presence of chemical substance/The level of expressed mRNA in the absence of chemical substance (yeast gene YDR380W): 2.4
level of expressed mRNA in the presence/in the absence of chemical substance (yeast gene YDR400W): 0.8
level of expressed mRNA in the presence/in the absence of chemical substance (yeast gene YDR408C): 1.0
The level of expressed mRNA in the presence of chemical substance/The level of expressed mRNA in the absence of chemical substance (yeast gene YDR410C): 1.2
level of expressed mRNA in the presence/in the absence of chemical substance (yeast gene YDR483W): 1.5
The level of expressed mRNA in the presence of chemical substance/The level of expressed mRNA in the absence of chemical substance (yeast gene YDR487C): 1.0
The level of expressed mRNA in the presence of chemical substance/The level of expressed mRNA in the absence of chemical substance (yeast gene YDR502C): 8.2
The level of expressed mRNA in the presence of chemical substance/The level of expressed mRNA in the absence of chemical substance (yeast gene YDR516C): 0.4
The level of expressed mRNA in the presence of chemical substance/The level of expressed mRNA in the absence of chemical substance (yeast gene YEL011W): 0.4
level of expressed mRNA in the presence/in the absence of chemical substance (yeast gene YEL063C): 1.3
level of expressed mRNA in the presence/in the absence of chemical substance (yeast gene YER015W): 0.8
The level of expressed mRNA in the presence of chemical substance/The level of expressed mRNA in the absence of chemical substance (yeast gene YER026C): 4.0
The level of expressed mRNA in the presence of chemical substance/The level of expressed mRNA in the absence of chemical substance (yeast gene YER053C): 1.1
level of expressed mRNA in the presence/in the absence of chemical substance (yeast gene YER081W): 0.5
The level of expressed mRNA in the presence of chemical substance/The level of expressed mRNA in the absence of chemical substance (yeast gene YER096W): 1.4
level of expressed mRNA in the presence/in the absence of chemical substance (yeast gene YER120W): 1.5
The level of expressed mRNA in the presence of chemical substance/The level of expressed mRNA in the absence of chemical substance (yeast gene YER178W): 1.8
level of expressed mRNA in the presence/in the absence of chemical substance (yeast gene YFL011W): 1.7
The level of expressed mRNA in the presence of chemical substance/The level of expressed mRNA in the absence of chemical substance (yeast gene YFL014W): 6.3
The level of expressed mRNA in the presence of chemical substance/The level of expressed mRNA in the absence of chemical substance (yeast gene YFL030W): 1.1
The level of expressed mRNA in the presence of chemical substance/The level of expressed mRNA in the absence of chemical substance (yeast gene YFL056C): 5.0
The level of expressed mRNA in the presence of chemical substance/The level of expressed mRNA in the absence of chemical substance (yeast gene YFR015C): 0.4
The level of expressed mRNA in the presence of chemical substance/The level of expressed mRNA in the absence of chemical substance (yeast gene YFR047C): 0.6
The level of expressed mRNA in the presence of chemical substance/The level of expressed mRNA in the absence of chemical substance (yeast gene YGL001C): 0.9
level of expressed mRNA in the presence/in the absence of chemical substance (yeast gene YGL012W): 0.6
The level of expressed mRNA in the presence of chemical substance/The level of expressed mRNA in the absence of chemical substance (yeast gene YGL022W): 4.0
The level of expressed mRNA in the presence of chemical substance/The level of expressed mRNA in the absence of chemical substance (yeast gene YGL104C): 0.9
level of expressed mRNA in the presence/in the absence of chemical substance (yeast gene YGL115W): 0.7
The level of expressed mRNA in the presence of chemical substance/The level of expressed mRNA in the absence of chemical substance (yeast gene YGL126W): 2.8
The level of expressed mRNA in the presence of chemical substance/The level of expressed mRNA in the absence of chemical substance (yeast gene YGL154C): 0.8
level of expressed mRNA in the presence/in the absence of chemical substance (yeast gene YGL205W): 2.0
The level of expressed mRNA in the presence of chemical substance/The level of expressed mRNA in the absence of chemical substance (yeast gene YGL248W): 1.8
The level of expressed mRNA in the presence of chemical substance/The level of expressed mRNA in the absence of chemical substance (yeast gene YGL253W): 0.8
The level of expressed mRNA in the presence of chemical substance/The level of expressed mRNA in the absence of chemical substance (yeast gene YGR037C): 1.5
The level of expressed mRNA in the presence of chemical substance/The level of expressed mRNA in the absence of chemical substance (yeast gene YGR060W): 1.4
level of expressed mRNA in the presence/in the absence of chemical substance (yeast gene YGR096W): 0.9
level of expressed mRNA in the presence/in the absence of chemical substance (yeast gene YGR191W): 1.5
The level of expressed mRNA in the presence of chemical substance/The level of expressed mRNA in the absence of chemical substance (yeast gene YGR194C): 0.6
level of expressed mRNA in the presence/in the absence of chemical substance (yeast gene YGR204W): 1.6
level of expressed mRNA in the presence/in the absence of chemical substance (yeast gene YGR288W): 0.8
level of expressed mRNA in the presence/in the absence of chemical substance (yeast gene YHR025W): 2.1
The level of expressed mRNA in the presence of chemical substance/The level of expressed mRNA in the absence of chemical substance (yeast gene YHR037W): 1.1
The level of expressed mRNA in the presence of chemical substance/The level of expressed mRNA in the absence of chemical substance (yeast gene YHR092C): 0.2
The level of expressed mRNA in the presence of chemical substance/The level of expressed mRNA in the absence of chemical substance (yeast gene YHR111W): 1.1
level of expressed mRNA in the presence/in the absence of chemical substance (yeast gene YHR123W): 2.3
The level of expressed mRNA in the presence of chemical substance/The level of expressed mRNA in the absence of chemical substance (yeast gene YHR137W): 2.8
The level of expressed mRNA in the presence of chemical substance/The level of expressed mRNA in the absence of chemical substance (yeast gene YHR174W): 2.0
The level of expressed mRNA in the presence of chemical substance/The level of expressed mRNA in the absence of chemical substance (yeast gene YHR176W): 1.5
The level of expressed mRNA in the presence of chemical substance/The level of expressed mRNA in the absence of chemical substance (yeast gene YHR190W): 1.3
level of expressed mRNA in the presence/in the absence of chemical substance (yeast gene YHR210C): 0.5
level of expressed mRNA in the presence/in the absence of chemical substance (yeast gene YIL006W): 1.5
The level of expressed mRNA in the presence of chemical substance/The level of expressed mRNA in the absence of chemical substance (yeast gene YIL033C): 1.0
The level of expressed mRNA in the presence of chemical substance/The level of expressed mRNA in the absence of chemical substance (yeast gene YIL045W): 0.6
The level of expressed mRNA in the presence of chemical substance/The level of expressed mRNA in the absence of chemical substance (yeast gene YIL107C): 1.0
The level of expressed mRNA in the presence of chemical substance/The level of expressed mRNA in the absence of chemical substance (yeast gene YIL154C): 4.3
The level of expressed mRNA in the presence of chemical substance/The level of expressed mRNA in the absence of chemical substance (yeast gene YIL155C): 1.4
The level of expressed mRNA in the presence of chemical substance/The level of expressed mRNA in the absence of chemical substance (yeast gene YIL167W): 0.6
The level of expressed mRNA in the presence of chemical substance/The level of expressed mRNA in the absence of chemical substance (yeast gene YIR036C): 1.1
